{
  "source": "paper PMC10004634",
  "about": "(PLOS ONE, 2023)",
  "key": {"FYN": {"molecular_target": "FYN (Homo sapiens, UniProt P06241)", "sequence (P06241 whole entry)": "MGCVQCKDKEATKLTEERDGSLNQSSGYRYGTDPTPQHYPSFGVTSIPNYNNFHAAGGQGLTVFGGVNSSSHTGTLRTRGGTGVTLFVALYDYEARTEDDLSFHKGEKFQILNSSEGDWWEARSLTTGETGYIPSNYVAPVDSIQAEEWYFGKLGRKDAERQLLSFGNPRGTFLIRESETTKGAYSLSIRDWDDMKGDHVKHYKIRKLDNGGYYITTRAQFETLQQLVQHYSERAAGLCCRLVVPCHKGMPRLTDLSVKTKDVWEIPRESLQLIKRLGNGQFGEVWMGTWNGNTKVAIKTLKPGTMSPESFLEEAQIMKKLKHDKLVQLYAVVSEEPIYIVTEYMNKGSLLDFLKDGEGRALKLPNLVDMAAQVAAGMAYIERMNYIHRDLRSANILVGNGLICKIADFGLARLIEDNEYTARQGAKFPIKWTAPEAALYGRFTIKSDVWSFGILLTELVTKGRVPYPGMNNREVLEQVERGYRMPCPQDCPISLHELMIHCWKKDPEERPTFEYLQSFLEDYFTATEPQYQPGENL", "assay": "mobility shift assay (MSA)"}, "TXK": {"molecular_target": "T1, TXK (Homo sapiens, UniProt P42681)", "T1 sequence (P42681 1-527)": "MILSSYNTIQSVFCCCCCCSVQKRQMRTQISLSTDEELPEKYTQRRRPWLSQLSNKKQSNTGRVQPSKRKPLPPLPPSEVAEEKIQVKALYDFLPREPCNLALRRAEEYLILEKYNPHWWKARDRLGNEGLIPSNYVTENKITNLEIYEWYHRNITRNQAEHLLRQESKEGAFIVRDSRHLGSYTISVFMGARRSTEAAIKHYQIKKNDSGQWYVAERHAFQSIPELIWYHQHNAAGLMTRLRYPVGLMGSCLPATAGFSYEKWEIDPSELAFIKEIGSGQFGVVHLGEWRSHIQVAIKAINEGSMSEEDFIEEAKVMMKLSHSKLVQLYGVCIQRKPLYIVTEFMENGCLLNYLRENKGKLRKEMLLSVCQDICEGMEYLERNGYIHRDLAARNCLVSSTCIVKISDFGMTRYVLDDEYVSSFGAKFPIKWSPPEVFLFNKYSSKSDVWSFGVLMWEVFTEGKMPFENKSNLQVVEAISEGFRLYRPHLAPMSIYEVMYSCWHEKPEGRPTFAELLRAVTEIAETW", "assay": "Z'-Lyte kinase inhibition assay", "type": "biochemical", "set-up": "purchased Thermo Fisher Scientific (Invitrogen Z'-Lyte service)", "details": "60 min preincubation", "procedure": "In all the assays, each test compound was preincubated with peptide/kinase mixture or kinase/antibody mixture for 60 min at room temperature before adding the ATP solution or AlexaFluor labeled Tracer to initiate the 60-min incubation of the reactants."}, "CDK11": {"molecular_target": "T2, CDK11 (Homo sapiens, UniProt Q9BWU1)", "T2 construct": "gene CDK19", "assay": "biochemical", "set-up": "KINOMEscan scanMAX competition binding, DNA-tagged kinases, qPCR read-out, percent control at 300 nM"}, "TYRO3": {"molecular_target": "T3, TYRO3 (Homo sapiens, UniProt Q06418)", "T3 sequence (Q06418 1-890)": "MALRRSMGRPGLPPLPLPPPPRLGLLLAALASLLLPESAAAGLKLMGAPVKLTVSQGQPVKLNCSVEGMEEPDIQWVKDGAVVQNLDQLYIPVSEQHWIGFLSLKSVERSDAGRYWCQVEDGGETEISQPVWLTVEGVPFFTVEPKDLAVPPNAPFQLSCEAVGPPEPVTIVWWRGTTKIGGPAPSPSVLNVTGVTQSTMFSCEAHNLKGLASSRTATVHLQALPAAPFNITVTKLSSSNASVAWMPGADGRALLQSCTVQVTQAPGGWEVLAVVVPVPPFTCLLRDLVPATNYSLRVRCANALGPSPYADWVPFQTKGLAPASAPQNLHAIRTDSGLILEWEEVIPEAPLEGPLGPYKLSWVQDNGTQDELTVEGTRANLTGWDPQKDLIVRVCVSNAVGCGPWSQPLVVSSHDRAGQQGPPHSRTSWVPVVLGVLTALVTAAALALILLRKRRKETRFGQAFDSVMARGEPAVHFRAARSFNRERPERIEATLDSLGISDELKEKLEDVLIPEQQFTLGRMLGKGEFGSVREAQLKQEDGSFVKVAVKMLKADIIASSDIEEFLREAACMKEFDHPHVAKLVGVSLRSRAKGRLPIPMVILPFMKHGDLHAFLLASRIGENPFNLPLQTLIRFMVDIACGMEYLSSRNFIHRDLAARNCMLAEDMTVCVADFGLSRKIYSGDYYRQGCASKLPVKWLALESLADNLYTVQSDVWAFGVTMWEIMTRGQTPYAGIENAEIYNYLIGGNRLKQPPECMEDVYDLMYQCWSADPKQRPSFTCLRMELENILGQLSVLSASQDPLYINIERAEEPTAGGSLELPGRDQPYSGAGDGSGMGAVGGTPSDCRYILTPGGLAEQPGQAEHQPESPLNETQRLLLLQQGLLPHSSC", "assay": "biochemical", "set-up": "KINOMEscan scanMAX competition binding, DNA-tagged kinases, qPCR read-out, percent control at 300 nM"}, "p38-delta": {"molecular_target": "T4, p38-delta (Homo sapiens, UniProt O15264)", "T4 construct": "gene MAPK13", "T4 sequence (O15264 1-365)": "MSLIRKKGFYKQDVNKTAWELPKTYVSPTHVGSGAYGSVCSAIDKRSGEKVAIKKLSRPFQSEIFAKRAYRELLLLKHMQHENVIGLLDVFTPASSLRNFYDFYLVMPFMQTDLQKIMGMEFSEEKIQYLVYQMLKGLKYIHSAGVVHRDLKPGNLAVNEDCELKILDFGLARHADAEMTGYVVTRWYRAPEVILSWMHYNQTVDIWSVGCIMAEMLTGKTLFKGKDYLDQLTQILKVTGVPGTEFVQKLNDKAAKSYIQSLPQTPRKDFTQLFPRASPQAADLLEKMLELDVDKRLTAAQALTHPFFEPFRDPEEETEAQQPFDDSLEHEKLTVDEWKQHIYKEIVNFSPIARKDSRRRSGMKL", "assay": "biochemical", "set-up": "KINOMEscan scanMAX competition binding, DNA-tagged kinases, qPCR read-out, percent control at 300 nM"}, "MET(M1250T)": {"molecular_target": "MET(M1250T) (Homo sapiens, UniProt P08581, M1250T)", "sequence (P08581 whole entry M1250T)": "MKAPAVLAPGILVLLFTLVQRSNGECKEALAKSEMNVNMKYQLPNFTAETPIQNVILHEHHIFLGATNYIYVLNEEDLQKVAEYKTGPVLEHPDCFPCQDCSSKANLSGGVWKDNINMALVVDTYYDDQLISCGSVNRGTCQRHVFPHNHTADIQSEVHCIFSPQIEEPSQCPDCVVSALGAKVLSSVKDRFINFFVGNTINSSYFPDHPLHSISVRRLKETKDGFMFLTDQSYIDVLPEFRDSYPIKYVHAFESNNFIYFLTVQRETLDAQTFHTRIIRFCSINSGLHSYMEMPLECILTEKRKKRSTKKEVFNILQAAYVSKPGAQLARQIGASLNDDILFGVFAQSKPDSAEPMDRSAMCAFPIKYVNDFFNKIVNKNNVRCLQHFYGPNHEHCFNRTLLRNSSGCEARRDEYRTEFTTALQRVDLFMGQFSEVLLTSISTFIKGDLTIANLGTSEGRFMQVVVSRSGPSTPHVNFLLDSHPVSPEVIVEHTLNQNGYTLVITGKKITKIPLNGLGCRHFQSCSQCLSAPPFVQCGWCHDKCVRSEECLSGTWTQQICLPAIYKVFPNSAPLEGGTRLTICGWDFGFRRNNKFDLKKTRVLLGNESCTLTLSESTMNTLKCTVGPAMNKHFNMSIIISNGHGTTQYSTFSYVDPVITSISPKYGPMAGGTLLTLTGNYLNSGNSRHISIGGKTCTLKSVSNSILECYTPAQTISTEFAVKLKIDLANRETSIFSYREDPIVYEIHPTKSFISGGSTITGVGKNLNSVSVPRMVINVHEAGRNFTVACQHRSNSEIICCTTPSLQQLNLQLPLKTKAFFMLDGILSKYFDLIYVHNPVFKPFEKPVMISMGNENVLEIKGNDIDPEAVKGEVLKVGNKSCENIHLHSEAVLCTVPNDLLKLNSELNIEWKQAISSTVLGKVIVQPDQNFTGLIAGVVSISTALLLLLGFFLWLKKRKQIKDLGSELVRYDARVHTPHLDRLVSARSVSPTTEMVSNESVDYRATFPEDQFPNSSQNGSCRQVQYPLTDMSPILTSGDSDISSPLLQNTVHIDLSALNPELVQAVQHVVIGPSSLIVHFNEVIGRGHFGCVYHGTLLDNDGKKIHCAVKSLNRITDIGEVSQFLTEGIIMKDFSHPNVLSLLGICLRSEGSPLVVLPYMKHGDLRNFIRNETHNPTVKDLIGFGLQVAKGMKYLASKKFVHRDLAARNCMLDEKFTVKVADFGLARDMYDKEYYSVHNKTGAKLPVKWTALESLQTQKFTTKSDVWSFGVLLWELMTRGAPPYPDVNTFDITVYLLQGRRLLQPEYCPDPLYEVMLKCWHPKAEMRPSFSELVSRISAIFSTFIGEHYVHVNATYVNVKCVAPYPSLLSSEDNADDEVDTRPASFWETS", "assay": "biochemical", "set-up": "KINOMEscan scanMAX competition binding, DNA-tagged kinases, qPCR read-out, percent control at 300 nM"}, "EPHA2": {"molecular_target": "EPHA2 (Homo sapiens, UniProt P29317)", "sequence (P29317 whole entry)": "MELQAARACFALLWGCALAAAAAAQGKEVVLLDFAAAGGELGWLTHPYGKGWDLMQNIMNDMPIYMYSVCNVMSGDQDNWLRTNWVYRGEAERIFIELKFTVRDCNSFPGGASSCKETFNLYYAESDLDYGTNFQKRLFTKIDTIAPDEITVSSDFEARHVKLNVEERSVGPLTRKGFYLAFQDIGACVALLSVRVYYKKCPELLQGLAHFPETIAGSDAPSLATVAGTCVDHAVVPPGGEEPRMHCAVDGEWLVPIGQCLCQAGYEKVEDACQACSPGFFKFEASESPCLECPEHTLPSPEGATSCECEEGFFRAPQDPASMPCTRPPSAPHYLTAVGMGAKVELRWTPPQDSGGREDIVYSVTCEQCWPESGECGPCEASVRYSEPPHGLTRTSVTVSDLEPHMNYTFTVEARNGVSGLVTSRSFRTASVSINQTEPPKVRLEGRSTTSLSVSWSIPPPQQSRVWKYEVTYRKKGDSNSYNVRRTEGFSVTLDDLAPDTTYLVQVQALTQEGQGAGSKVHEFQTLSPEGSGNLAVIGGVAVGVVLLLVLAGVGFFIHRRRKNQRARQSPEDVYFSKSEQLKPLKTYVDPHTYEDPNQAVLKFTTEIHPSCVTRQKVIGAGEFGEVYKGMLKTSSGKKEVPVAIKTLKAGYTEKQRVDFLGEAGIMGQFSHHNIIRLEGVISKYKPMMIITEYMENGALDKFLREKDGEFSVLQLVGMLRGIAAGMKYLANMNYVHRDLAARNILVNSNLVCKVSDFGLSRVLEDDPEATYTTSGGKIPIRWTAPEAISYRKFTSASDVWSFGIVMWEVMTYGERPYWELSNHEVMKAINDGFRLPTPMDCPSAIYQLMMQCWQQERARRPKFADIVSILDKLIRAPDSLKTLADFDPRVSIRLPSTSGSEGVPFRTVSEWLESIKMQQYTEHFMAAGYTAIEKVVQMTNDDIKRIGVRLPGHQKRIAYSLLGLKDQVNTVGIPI", "assay": "biochemical", "set-up": "KINOMEscan scanMAX competition binding, DNA-tagged kinases, qPCR read-out, percent control at 300 nM"}, "SYK": {"molecular_target": "SYK (Homo sapiens, UniProt P43405)", "assay": "biochemical", "set-up": "KINOMEscan scanMAX competition binding, DNA-tagged kinases, qPCR read-out, percent control at 300 nM"}, "PFCDPK1(P.falciparum)": {"molecular_target": "T5, PFCDPK1(P.falciparum) (Plasmodium falciparum, UniProt P62344)", "T5 construct": "gene CDPK1", "T5 sequence (P62344 whole entry)": "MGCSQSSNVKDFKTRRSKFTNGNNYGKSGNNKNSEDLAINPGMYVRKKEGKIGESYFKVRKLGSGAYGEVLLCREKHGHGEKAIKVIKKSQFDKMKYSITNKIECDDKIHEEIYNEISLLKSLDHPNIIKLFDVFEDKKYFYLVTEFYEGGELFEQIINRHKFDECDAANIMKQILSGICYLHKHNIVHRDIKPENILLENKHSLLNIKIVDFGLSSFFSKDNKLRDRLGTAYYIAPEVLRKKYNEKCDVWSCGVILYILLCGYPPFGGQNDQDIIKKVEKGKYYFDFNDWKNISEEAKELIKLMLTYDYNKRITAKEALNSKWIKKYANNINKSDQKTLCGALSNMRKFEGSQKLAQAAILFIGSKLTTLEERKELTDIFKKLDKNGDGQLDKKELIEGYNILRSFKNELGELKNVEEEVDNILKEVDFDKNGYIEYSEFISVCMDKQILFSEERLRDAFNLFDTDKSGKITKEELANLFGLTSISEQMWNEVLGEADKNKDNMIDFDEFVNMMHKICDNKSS", "assay": "biochemical"}, "[1]": {"details": "read-out: Percent control / Tirabrutinib"}, "[2]": {"details": "read-out: Percent control / Ibrutinib"}, "[3]": {"details": "read-out: Percent control / Zanubrutinib"}, "[4]": {"details": "read-out: Percent control / Acalabrutinib"}},
  "note": "Like-named read-outs stand apart in the source and are kept apart here.",
  "data": [
    {"smiles": "CC#CC(=O)N1CC[C@@H](n2c(=O)n(-c3ccc(Oc4ccccc4)cc3)c3c(N)ncnc32)C1", "note": "[Tirabrutinib]", "values": [
      {"measurement": "IC50", "setting": "FYN", "result": 2220, "unit": "nM"},
      {"measurement": "IC50", "setting": "TXK", "result": 54.5, "unit": "nM"},
      {"measurement": "remaining binding at 0.3 µM", "setting": "CDK11; [1]", "result": 93, "unit": "%"},
      {"measurement": "remaining binding at 0.3 µM", "setting": "TYRO3; [1]", "result": 99, "unit": "%"},
      {"measurement": "remaining binding at 0.3 µM", "setting": "p38-delta; [1]", "result": 94, "unit": "%"},
      {"measurement": "remaining binding at 0.3 µM", "setting": "MET(M1250T); [1]", "result": 93, "unit": "%"},
      {"measurement": "remaining binding at 0.3 µM", "setting": "EPHA2; [1]", "result": 93, "unit": "%"},
      {"measurement": "remaining binding at 0.3 µM", "setting": "SYK; [1]", "result": 93, "unit": "%"}
    ]},
    {"smiles": "C=CC(=O)N1CCC[C@@H](n2nc(-c3ccc(Oc4ccccc4)cc3)c3c(N)ncnc32)C1", "note": "[Ibrutinib]", "values": [
      {"measurement": "remaining binding at 0.3 µM", "setting": "CDK11; [2]", "result": 81, "unit": "%"},
      {"measurement": "remaining binding at 0.3 µM", "setting": "TYRO3; [2]", "result": 61, "unit": "%"},
      {"measurement": "remaining activity at 0.3 µM", "setting": "PFCDPK1(P.falciparum); [2]", "result": 0.9, "unit": "%"}
    ]},
    {"smiles": "C=CC(=O)N1CCC([C@@H]2CCNc3c(C(N)=O)c(-c4ccc(Oc5ccccc5)cc4)nn32)CC1", "note": "[Zanubrutinib]", "values": [
      {"measurement": "IC50", "setting": "TXK", "result": 4.59, "unit": "nM"},
      {"measurement": "remaining binding at 0.3 µM", "setting": "CDK11; [3]", "result": 83, "unit": "%"},
      {"measurement": "remaining binding at 0.3 µM", "setting": "TYRO3; [3]", "result": 80, "unit": "%"},
      {"measurement": "remaining binding at 0.3 µM", "setting": "p38-delta; [3]", "result": 100, "unit": "%"},
      {"measurement": "remaining binding at 0.3 µM", "setting": "MET(M1250T); [3]", "result": 100, "unit": "%"},
      {"measurement": "remaining binding at 0.3 µM", "setting": "EPHA2; [3]", "result": 67, "unit": "%"},
      {"measurement": "remaining binding at 0.3 µM", "setting": "SYK; [3]", "result": 81, "unit": "%"},
      {"measurement": "remaining activity at 0.3 µM", "setting": "PFCDPK1(P.falciparum); [3]", "result": 7.4, "unit": "%"}
    ]},
    {"smiles": "CC#CC(=O)N1CCC[C@H]1c1nc(-c2ccc(C(=O)Nc3ccccn3)cc2)c2c(N)nccn12", "note": "[Acalabrutinib]", "values": [
      {"measurement": "IC50", "setting": "FYN", "result": "> 10000", "unit": "nM"},
      {"measurement": "IC50", "setting": "TXK", "result": 273, "unit": "nM"},
      {"measurement": "remaining binding at 0.3 µM", "setting": "CDK11; [4]", "result": 74, "unit": "%"},
      {"measurement": "remaining binding at 0.3 µM", "setting": "p38-delta; [4]", "result": 95, "unit": "%"},
      {"measurement": "remaining binding at 0.3 µM", "setting": "MET(M1250T); [4]", "result": 93, "unit": "%"},
      {"measurement": "remaining binding at 0.3 µM", "setting": "EPHA2; [4]", "result": 94, "unit": "%"},
      {"measurement": "remaining binding at 0.3 µM", "setting": "SYK; [4]", "result": 89, "unit": "%"},
      {"measurement": "remaining activity at 0.3 µM", "setting": "PFCDPK1(P.falciparum); [4]", "result": 23, "unit": "%"}
    ]}
  ]
}
